{"source": "the kinase profiling compilation of Christmann-Franck et al. (2016)", "assay_in_all_cases": "Caliper, Mobility shift assay off-chip", "key": {"FGFR1 (human)": {"target": "FGFR1 (human) (UniProt P11362)", "sequence (P11362 whole entry, looked up)": "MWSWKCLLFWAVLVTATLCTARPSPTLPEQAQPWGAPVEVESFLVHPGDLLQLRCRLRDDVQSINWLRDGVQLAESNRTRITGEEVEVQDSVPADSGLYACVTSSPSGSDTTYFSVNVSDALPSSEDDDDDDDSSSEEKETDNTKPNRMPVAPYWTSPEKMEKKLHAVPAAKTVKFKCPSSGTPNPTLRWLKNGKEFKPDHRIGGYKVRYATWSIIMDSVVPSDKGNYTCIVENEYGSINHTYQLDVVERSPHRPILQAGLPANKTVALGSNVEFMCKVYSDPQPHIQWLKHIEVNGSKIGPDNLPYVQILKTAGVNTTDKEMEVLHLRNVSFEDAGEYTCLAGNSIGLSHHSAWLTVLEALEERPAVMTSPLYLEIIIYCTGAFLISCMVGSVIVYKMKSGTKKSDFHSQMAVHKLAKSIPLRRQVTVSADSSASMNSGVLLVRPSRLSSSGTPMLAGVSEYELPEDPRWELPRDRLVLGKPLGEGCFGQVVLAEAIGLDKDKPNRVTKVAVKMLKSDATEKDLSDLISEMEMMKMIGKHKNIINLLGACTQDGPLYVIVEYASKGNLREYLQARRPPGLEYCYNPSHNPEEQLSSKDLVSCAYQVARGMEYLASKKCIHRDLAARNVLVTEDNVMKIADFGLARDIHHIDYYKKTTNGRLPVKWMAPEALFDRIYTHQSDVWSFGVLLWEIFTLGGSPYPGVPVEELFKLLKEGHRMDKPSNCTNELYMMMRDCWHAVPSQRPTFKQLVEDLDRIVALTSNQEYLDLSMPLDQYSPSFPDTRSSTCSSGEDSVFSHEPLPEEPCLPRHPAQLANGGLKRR"}, "AXL (human)": {"target": "AXL (human) (UniProt P30530)"}, "DAPK3 (human)": {"target": "DAPK3 (human) (UniProt O43293)"}, "[1]": {"test_system": "EGFR (human), P00533 [T790M]"}, "TYRO3 (human)": {"target": "TYRO3 (human) (UniProt Q06418)"}, "MERTK (human)": {"target": "MERTK (human) (UniProt Q12866)", "sequence (Q12866 whole entry, looked up)": "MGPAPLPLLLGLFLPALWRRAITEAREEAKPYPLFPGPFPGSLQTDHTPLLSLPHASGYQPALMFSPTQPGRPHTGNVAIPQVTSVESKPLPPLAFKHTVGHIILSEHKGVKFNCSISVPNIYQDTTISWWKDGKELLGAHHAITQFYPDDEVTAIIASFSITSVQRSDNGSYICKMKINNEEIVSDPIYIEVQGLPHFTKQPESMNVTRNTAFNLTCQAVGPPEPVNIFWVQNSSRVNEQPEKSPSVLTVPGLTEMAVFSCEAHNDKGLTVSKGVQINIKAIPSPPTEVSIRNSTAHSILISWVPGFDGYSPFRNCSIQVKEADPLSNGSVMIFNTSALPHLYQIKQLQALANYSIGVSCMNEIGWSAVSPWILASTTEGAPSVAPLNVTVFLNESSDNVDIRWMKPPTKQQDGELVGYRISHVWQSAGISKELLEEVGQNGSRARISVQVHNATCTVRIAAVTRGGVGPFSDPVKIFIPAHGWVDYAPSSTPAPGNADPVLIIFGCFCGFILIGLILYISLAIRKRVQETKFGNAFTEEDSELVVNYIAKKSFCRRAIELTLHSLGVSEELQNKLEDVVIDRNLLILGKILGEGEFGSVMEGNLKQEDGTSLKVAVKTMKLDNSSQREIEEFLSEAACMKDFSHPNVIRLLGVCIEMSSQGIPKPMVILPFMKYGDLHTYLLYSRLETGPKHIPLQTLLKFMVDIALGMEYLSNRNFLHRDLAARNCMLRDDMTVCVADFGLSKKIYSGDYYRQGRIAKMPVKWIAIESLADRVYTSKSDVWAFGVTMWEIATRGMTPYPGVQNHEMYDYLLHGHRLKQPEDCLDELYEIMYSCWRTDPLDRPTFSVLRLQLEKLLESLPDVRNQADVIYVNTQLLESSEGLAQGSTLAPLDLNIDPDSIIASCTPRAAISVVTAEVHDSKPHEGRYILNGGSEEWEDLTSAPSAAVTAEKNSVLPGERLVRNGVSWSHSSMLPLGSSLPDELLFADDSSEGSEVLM"}, "TXK (human)": {"target": "TXK (human) (UniProt P42681)"}, "[2]": {"test_system": "FGFR3 (human), P22607 [K650E]", "sequence (P22607 whole entry K650E, looked up)": "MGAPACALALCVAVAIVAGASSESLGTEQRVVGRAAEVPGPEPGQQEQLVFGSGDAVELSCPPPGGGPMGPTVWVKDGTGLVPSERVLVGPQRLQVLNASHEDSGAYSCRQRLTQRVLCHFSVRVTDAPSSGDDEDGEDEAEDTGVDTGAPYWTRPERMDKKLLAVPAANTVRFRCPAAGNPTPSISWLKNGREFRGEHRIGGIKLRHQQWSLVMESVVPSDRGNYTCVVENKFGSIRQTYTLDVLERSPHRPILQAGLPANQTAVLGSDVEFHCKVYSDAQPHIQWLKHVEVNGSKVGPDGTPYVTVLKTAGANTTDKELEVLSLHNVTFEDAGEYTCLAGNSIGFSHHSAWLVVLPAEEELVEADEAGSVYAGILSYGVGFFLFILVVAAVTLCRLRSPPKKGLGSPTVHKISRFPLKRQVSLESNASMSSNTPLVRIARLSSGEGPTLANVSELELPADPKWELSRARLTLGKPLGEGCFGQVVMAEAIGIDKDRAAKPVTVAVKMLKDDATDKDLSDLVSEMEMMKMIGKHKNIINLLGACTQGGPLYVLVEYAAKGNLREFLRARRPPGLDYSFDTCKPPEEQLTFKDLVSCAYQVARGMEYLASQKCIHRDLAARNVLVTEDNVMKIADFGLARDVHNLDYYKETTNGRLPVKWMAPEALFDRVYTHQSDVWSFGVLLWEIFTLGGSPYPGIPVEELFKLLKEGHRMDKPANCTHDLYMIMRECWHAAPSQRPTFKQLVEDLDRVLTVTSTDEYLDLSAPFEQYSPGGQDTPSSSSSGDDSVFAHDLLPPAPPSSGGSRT"}, "EPHA8 (human)": {"target": "EPHA8 (human) (UniProt P29322)", "sequence (P29322 whole entry, looked up)": "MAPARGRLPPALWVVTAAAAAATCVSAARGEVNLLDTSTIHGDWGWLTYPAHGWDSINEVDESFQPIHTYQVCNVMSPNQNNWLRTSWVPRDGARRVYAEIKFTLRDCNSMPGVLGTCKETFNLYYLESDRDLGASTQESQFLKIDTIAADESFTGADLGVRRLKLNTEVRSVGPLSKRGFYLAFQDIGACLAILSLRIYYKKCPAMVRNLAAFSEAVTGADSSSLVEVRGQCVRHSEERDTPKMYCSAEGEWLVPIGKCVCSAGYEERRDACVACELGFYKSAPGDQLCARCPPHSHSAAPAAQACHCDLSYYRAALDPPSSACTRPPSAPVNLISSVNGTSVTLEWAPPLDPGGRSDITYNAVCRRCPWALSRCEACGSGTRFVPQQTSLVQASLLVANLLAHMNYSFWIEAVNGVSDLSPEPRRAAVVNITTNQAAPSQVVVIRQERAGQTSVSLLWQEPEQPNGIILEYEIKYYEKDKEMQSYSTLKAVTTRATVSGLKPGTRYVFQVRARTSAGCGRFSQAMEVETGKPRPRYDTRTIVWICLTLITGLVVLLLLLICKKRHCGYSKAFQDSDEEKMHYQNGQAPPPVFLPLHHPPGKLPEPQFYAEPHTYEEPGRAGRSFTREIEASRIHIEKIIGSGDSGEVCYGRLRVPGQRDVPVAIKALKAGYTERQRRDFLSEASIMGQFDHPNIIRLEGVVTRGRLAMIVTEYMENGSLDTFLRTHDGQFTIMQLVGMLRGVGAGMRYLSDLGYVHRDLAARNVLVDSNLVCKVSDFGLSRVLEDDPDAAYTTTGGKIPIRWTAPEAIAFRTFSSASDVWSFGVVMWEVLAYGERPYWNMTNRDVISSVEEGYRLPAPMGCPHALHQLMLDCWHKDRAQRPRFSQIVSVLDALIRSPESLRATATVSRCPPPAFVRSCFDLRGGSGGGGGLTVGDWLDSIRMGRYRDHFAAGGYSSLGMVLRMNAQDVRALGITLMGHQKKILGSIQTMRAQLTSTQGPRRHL"}, "JAK2 JH1 JH2 (human)": {"target": "JAK2 JH1 JH2 (human) (UniProt O60674)"}, "PHKG2 (human)": {"target": "PHKG2 (human) (UniProt P15735)"}, "BLK (human)": {"target": "BLK (human) (UniProt P51451)"}, "YES1 (human)": {"target": "YES1 (human) (UniProt P07947)"}, "MARK4 (human)": {"target": "MARK4 (human) (UniProt Q96L34)"}, "ALK (human)": {"target": "ALK (human) (UniProt Q9UM73)"}, "CSNK1G2 (human)": {"target": "CSNK1G2 (human) (UniProt P78368)", "sequence (P78368 whole entry, looked up)": "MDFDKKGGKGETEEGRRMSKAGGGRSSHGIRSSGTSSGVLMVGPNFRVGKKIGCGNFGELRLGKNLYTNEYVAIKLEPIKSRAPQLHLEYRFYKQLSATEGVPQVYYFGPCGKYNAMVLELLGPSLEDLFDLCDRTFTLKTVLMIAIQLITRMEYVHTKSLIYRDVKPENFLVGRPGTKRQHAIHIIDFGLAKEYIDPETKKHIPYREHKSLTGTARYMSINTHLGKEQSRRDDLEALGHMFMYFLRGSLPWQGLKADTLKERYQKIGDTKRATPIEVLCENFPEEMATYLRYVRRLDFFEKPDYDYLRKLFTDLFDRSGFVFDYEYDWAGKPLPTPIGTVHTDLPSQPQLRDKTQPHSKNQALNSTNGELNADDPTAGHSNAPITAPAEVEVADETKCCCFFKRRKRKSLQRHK"}, "RPS6KA6 KD1 KD2 (human)": {"target": "RPS6KA6 KD1 KD2 (human) (UniProt Q9UK32)"}, "[3]": {"test_system": "EGFR (human), P00533 [T790M/L858R]"}, "EPHB1 (human)": {"target": "EPHB1 (human) (UniProt P54762)"}, "ROCK1 (human)": {"target": "ROCK1 (human) (UniProt Q13464)"}, "ITK (human)": {"target": "ITK (human) (UniProt Q08881)"}, "DAPK1 (human)": {"target": "DAPK1 (human) (UniProt P53355)"}, "DCLK1 (human)": {"target": "DCLK1 (human) (UniProt O15075)", "sequence (O15075 whole entry, looked up)": "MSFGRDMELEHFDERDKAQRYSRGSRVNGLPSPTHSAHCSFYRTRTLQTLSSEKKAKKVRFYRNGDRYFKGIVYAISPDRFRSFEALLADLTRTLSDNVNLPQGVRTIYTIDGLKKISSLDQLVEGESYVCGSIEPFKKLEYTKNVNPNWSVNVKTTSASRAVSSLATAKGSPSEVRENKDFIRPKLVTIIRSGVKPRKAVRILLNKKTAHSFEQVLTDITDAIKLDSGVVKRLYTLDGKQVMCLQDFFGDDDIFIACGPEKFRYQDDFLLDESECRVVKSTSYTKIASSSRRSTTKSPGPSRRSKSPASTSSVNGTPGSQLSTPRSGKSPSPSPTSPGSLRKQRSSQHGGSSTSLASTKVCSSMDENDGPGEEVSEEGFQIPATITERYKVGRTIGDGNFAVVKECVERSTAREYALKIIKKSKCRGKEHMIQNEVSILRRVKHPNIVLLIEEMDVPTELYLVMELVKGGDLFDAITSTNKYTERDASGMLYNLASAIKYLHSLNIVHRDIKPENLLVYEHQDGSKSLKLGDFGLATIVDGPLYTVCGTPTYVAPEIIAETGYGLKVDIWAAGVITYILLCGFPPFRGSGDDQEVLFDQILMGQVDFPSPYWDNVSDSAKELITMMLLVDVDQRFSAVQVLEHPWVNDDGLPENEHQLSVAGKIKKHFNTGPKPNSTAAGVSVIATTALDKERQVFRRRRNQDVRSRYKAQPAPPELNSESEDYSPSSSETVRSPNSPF"}, "CDK1 (human)": {"target": "CDK1 (human) (UniProt P06493)"}, "MST1R (human)": {"target": "MST1R (human) (UniProt Q04912)"}, "CAMK2A (human)": {"target": "CAMK2A (human) (UniProt Q9UQM7)"}, "RET (human)": {"target": "RET (human) (UniProt P07949)"}, "HIPK2 (human)": {"target": "HIPK2 (human) (UniProt Q9H2X6)"}, "DYRK3 (human)": {"target": "DYRK3 (human) (UniProt O43781)"}, "CDK5 CDK5R1 p25 (human)": {"target": "CDK5 CDK5R1 p25 (human) (UniProt Q15078+Q00535)"}, "[4]": {"target": "PRKAA2 PRKAB1 PRKAG1 (human) (UniProt Q9Y478+P54646+P54619)"}, "KIT (human)": {"target": "KIT (human) (UniProt P10721)"}, "PTK2B (human)": {"target": "PTK2B (human) (UniProt Q14289)"}}}
{"smiles": "O=c1c2cc(CS(=O)(=O)NCc3ccccn3)ccc2ccc2ncc(C3CCNCC3)cc12", "values": [{"measurement": "inhibition", "setting": "FGFR1 (human); compound 0.01 µM", "result": 3.8, "unit": "%"}, {"measurement": "inhibition", "setting": "FGFR1 (human); compound 0.1 µM", "result": 10.7, "unit": "%"}]}
{"smiles": "Cn1cc(-c2cnc3ccc4ccc(CS(=O)(=O)CCc5ccccn5)cc4c(=O)c3c2)cn1", "values": [{"measurement": "inhibition", "setting": "FGFR1 (human); compound 0.1 µM", "result": 12.3, "unit": "%"}, {"measurement": "inhibition", "setting": "FGFR1 (human); compound 1.0 µM", "result": 61.2, "unit": "%"}]}
{"smiles": "Cn1cc(-c2cnc3ccc4ccc(CS(=O)(=O)NC5CCCCC5)cc4c(=O)c3c2)cn1", "values": [{"measurement": "inhibition", "setting": "AXL (human); compound 0.01 µM", "result": -2.8, "unit": "%"}, {"measurement": "inhibition", "setting": "AXL (human); compound 0.1 µM", "result": 11.7, "unit": "%"}, {"measurement": "inhibition", "setting": "DAPK3 (human); compound 0.01 µM", "result": -1.6, "unit": "%"}, {"measurement": "inhibition", "setting": "DAPK3 (human); compound 0.1 µM", "result": 0.3, "unit": "%"}, {"measurement": "inhibition", "setting": "[1]; compound 0.01 µM", "result": -4.4, "unit": "%"}, {"measurement": "inhibition", "setting": "[1]; compound 0.1 µM", "result": -7.2, "unit": "%"}, {"measurement": "inhibition", "setting": "TYRO3 (human); compound 0.01 µM", "result": -1.1, "unit": "%"}, {"measurement": "inhibition", "setting": "TYRO3 (human); compound 0.1 µM", "result": 9.2, "unit": "%"}, {"measurement": "inhibition", "setting": "MERTK (human); compound 0.01 µM", "result": 11, "unit": "%"}, {"measurement": "inhibition", "setting": "MERTK (human); compound 0.1 µM", "result": 9.5, "unit": "%"}, {"measurement": "inhibition", "setting": "TXK (human); compound 0.01 µM", "result": -5.5, "unit": "%"}, {"measurement": "inhibition", "setting": "TXK (human); compound 0.1 µM", "result": 4.8, "unit": "%"}, {"measurement": "inhibition", "setting": "[2]; compound 0.01 µM", "result": -2.1, "unit": "%"}, {"measurement": "inhibition", "setting": "[2]; compound 0.1 µM", "result": 5.1, "unit": "%"}, {"measurement": "inhibition", "setting": "EPHA8 (human); compound 0.01 µM", "result": 15.6, "unit": "%"}, {"measurement": "inhibition", "setting": "EPHA8 (human); compound 0.1 µM", "result": 0.3, "unit": "%"}, {"measurement": "inhibition", "setting": "JAK2 JH1 JH2 (human); compound 0.01 µM", "result": 8.9, "unit": "%"}, {"measurement": "inhibition", "setting": "JAK2 JH1 JH2 (human); compound 0.1 µM", "result": 11.9, "unit": "%"}, {"measurement": "inhibition", "setting": "PHKG2 (human); compound 0.01 µM", "result": 3.4, "unit": "%"}, {"measurement": "inhibition", "setting": "PHKG2 (human); compound 0.1 µM", "result": 13.3, "unit": "%"}, {"measurement": "inhibition", "setting": "BLK (human); compound 0.01 µM", "result": 0.8, "unit": "%"}, {"measurement": "inhibition", "setting": "BLK (human); compound 0.1 µM", "result": 15.8, "unit": "%"}, {"measurement": "inhibition", "setting": "YES1 (human); compound 0.01 µM", "result": -1.4, "unit": "%"}, {"measurement": "inhibition", "setting": "YES1 (human); compound 0.1 µM", "result": -1.7, "unit": "%"}, {"measurement": "inhibition", "setting": "MARK4 (human); compound 0.01 µM", "result": 7.1, "unit": "%"}, {"measurement": "inhibition", "setting": "MARK4 (human); compound 0.1 µM", "result": 2.2, "unit": "%"}, {"measurement": "inhibition", "setting": "ALK (human); compound 0.01 µM", "result": 17.8, "unit": "%"}, {"measurement": "inhibition", "setting": "ALK (human); compound 0.1 µM", "result": -2, "unit": "%"}, {"measurement": "inhibition", "setting": "CSNK1G2 (human); compound 0.01 µM", "result": 4.3, "unit": "%"}, {"measurement": "inhibition", "setting": "CSNK1G2 (human); compound 0.1 µM", "result": 1.3, "unit": "%"}, {"measurement": "inhibition", "setting": "RPS6KA6 KD1 KD2 (human); compound 0.01 µM", "result": 5.8, "unit": "%"}, {"measurement": "inhibition", "setting": "RPS6KA6 KD1 KD2 (human); compound 0.1 µM", "result": 3.2, "unit": "%"}, {"measurement": "inhibition", "setting": "[3]; compound 0.01 µM", "result": 1.8, "unit": "%"}, {"measurement": "inhibition", "setting": "[3]; compound 0.1 µM", "result": -0.4, "unit": "%"}, {"measurement": "inhibition", "setting": "EPHB1 (human); compound 0.01 µM", "result": 5.1, "unit": "%"}, {"measurement": "inhibition", "setting": "EPHB1 (human); compound 0.1 µM", "result": -8, "unit": "%"}, {"measurement": "inhibition", "setting": "ROCK1 (human); compound 0.01 µM", "result": 3.1, "unit": "%"}, {"measurement": "inhibition", "setting": "ROCK1 (human); compound 0.1 µM", "result": 4, "unit": "%"}, {"measurement": "inhibition", "setting": "ITK (human); compound 0.01 µM", "result": -2.6, "unit": "%"}, {"measurement": "inhibition", "setting": "ITK (human); compound 0.1 µM", "result": 15.3, "unit": "%"}, {"measurement": "inhibition", "setting": "DAPK1 (human); compound 0.01 µM", "result": 13.1, "unit": "%"}, {"measurement": "inhibition", "setting": "DAPK1 (human); compound 0.1 µM", "result": 0.1, "unit": "%"}, {"measurement": "inhibition", "setting": "DCLK1 (human); compound 0.01 µM", "result": 5.9, "unit": "%"}, {"measurement": "inhibition", "setting": "DCLK1 (human); compound 0.1 µM", "result": 12, "unit": "%"}, {"measurement": "inhibition", "setting": "CDK1 (human); compound 0.01 µM", "result": -5.7, "unit": "%"}, {"measurement": "inhibition", "setting": "CDK1 (human); compound 0.1 µM", "result": 1.6, "unit": "%"}, {"measurement": "inhibition", "setting": "MST1R (human); compound 0.01 µM", "result": 11.8, "unit": "%"}, {"measurement": "inhibition", "setting": "MST1R (human); compound 0.1 µM", "result": 37.6, "unit": "%"}, {"measurement": "inhibition", "setting": "CAMK2A (human); compound 0.01 µM", "result": -12.3, "unit": "%"}, {"measurement": "inhibition", "setting": "CAMK2A (human); compound 0.1 µM", "result": -3.8, "unit": "%"}, {"measurement": "inhibition", "setting": "RET (human); compound 0.01 µM", "result": 10.4, "unit": "%"}, {"measurement": "inhibition", "setting": "RET (human); compound 0.1 µM", "result": 12.1, "unit": "%"}, {"measurement": "inhibition", "setting": "HIPK2 (human); compound 0.01 µM", "result": -0.3, "unit": "%"}, {"measurement": "inhibition", "setting": "HIPK2 (human); compound 0.1 µM", "result": 7, "unit": "%"}, {"measurement": "inhibition", "setting": "DYRK3 (human); compound 0.01 µM", "result": 1.8, "unit": "%"}, {"measurement": "inhibition", "setting": "DYRK3 (human); compound 0.1 µM", "result": 19.6, "unit": "%"}, {"measurement": "inhibition", "setting": "CDK5 CDK5R1 p25 (human); compound 0.01 µM", "result": 8.4, "unit": "%"}, {"measurement": "inhibition", "setting": "CDK5 CDK5R1 p25 (human); compound 0.1 µM", "result": -2, "unit": "%"}, {"measurement": "inhibition", "setting": "[4]; compound 0.01 µM", "result": 2.9, "unit": "%"}, {"measurement": "inhibition", "setting": "[4]; compound 0.1 µM", "result": -0.1, "unit": "%"}, {"measurement": "inhibition", "setting": "FGFR1 (human); compound 0.01 µM", "result": 6.8, "unit": "%"}, {"measurement": "inhibition", "setting": "FGFR1 (human); compound 0.1 µM", "result": 2.8, "unit": "%"}, {"measurement": "inhibition", "setting": "KIT (human); compound 0.01 µM", "result": -3.5, "unit": "%"}, {"measurement": "inhibition", "setting": "KIT (human); compound 0.1 µM", "result": 13.6, "unit": "%"}, {"measurement": "inhibition", "setting": "PTK2B (human); compound 0.01 µM", "result": -1, "unit": "%"}, {"measurement": "inhibition", "setting": "PTK2B (human); compound 0.1 µM", "result": 6.8, "unit": "%"}]}
